Test results from PubChem BioAssay AID2179 (Vanderbilt High Throughput Screening Facility, 2009).
Calls of active or inactive are those of the source. No rule for the calls is given here.

Target: Metabotropic glutamate receptor 4 (Rattus norvegicus) (UniProt P31423)
Assay: PubChem AID 2179
Conditions: HEK/GIRK rat mGluR4, thallium flux, glutamate CRC fold-shift

Sequence of Metabotropic glutamate receptor 4 (Rattus norvegicus) (P31423 whole entry, looked up): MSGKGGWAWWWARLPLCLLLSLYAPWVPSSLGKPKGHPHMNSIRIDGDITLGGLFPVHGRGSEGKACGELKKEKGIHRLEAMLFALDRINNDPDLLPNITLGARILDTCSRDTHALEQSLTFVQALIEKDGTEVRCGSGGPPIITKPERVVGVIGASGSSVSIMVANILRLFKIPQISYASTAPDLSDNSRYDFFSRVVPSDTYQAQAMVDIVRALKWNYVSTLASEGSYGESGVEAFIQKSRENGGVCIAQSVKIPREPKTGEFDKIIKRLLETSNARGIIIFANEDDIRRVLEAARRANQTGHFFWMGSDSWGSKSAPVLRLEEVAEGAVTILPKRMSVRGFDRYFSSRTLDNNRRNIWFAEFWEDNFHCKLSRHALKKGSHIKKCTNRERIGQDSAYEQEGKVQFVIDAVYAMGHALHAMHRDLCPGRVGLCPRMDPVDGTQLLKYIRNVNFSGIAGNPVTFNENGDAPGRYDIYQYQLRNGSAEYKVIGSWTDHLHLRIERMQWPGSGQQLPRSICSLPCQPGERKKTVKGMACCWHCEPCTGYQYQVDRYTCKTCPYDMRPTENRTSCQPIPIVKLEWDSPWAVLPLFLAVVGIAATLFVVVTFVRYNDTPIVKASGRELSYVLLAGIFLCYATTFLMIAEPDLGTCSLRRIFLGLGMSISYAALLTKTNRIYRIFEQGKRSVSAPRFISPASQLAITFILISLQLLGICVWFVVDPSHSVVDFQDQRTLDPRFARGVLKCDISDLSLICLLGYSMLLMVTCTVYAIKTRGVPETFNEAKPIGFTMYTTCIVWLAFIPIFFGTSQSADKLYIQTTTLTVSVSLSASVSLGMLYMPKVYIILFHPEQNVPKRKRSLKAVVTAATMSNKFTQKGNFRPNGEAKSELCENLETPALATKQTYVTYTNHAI

Compound | glutamate EC50 in presence of 30 uM compound (lower = stronger potentiation)
COc1cc(NC(=O)c2ccccn2)ccc1C | 330 nM
O=C(Nc1ccc(Cl)c(C(F)(F)F)c1)c1ccccn1 | 5820 nM (inactive)
COc1ccc(NC(=O)c2ccccn2)cc1Cl | 1180 nM
O=C(Nc1ccc(F)c(C(F)(F)F)c1)c1ccccn1 | 4010 nM (inactive)

Second part, the compound after the results:

glutamate EC50 in presence of 30 uM compound (lower = stronger potentiation) | Compound
307 nM | COc1cc(NC(=O)c2ccccn2)ccc1Cl
409 nM | COc1cc(NC(=O)c2ccccn2)ccc1F
368 nM | O=C(Nc1cccc(Cl)c1)c1ccccn1
